Experimental data published in ChEMBL document CHEMBL1201862, “PubChem BioAssay data set” (2004).
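Protocol summary: plate cells (96-well), add compound at 5 concentrations, incubate 48 h, interpolate endpoints linearly. Here, GI50 denotes the concentration required for 50% inhibition of growth.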 Calls of active or inactive are those of the source. No stated cut-off is given here; in the data, active = GI50 up to about 1.1 µM and inactive = higher.

How the values were obtained:
Test in all cases: growth of human tumour cells (NCI), 48 h
NCI-H522 = test system: NCI-H522
786-0 = test system: 786-0
SNB-75 = test system: SNB-75
HOP-92 = test system: HOP-92
M14 = test system: M14
HL-60 = test system: HL-60
UO-31 = test system: UO-31
ACHN = test system: ACHN
MOLT-4 = test system: MOLT-4
SW-620 = test system: SW-620
RXF 393 = test system: RXF 393
TK-10 = test system: TK-10
MDA-MB-231 = test system: MDA-MB-231
HOP-62 = test system: HOP-62
EKVX = test system: EKVX
K562 = test system: K562
U-251 = test system: U-251
MDA-N = test system: MDA-N
DU-145 = test system: DU-145
SK-OV-3 = test system: SK-OV-3

Measured: GI50

O=C(O)CNCc1c2ccccc2nc2ccccc12
inactive: NCI-H522 22 µM | 786-0 36 µM | SNB-75 32.8 µM | HOP-92 15.6 µM | M14 47.6 µM | HL-60 7.64 µM | UO-31 25.2 µM | ACHN 31.1 µM | MOLT-4 6.27 µM | SW-620 26.4 µM | RXF 393 32.4 µM | TK-10 61.9 µM | MDA-MB-231 43 µM | HOP-62 43.9 µM | EKVX 38.4 µM | K562 8.85 µM | U-251 60 µM | MDA-N 32.4 µM | DU-145 > 100 µM | SK-OV-3 > 76.4 µM

c1cc2nnc1SCCSCCSc1ccc(nn1)SCCSCCS2
inactive: NCI-H522 > 100 µM | 786-0 > 100 µM | SNB-75 18.5 µM | HOP-92 > 100 µM | M14 > 100 µM | HL-60 > 100 µM | UO-31 > 100 µM | ACHN > 100 µM | MOLT-4 > 100 µM | SW-620 > 100 µM | RXF 393 > 100 µM | TK-10 > 100 µM | MDA-MB-231 40.6 µM | HOP-62 31 µM | EKVX > 100 µM | K562 > 100 µM | U-251 > 100 µM | MDA-N > 100 µM | DU-145 > 100 µM | SK-OV-3 > 100 µM

Cc1ccc(S(=O)(=O)Nc2ccccc2C=O)cc1
inactive: NCI-H522 29 µM | 786-0 16.3 µM | SNB-75 18.3 µM | HOP-92 2.35 µM | M14 19.3 µM | HL-60 11 µM | UO-31 10.7 µM | ACHN 17.7 µM | MOLT-4 11.9 µM | SW-620 17 µM | RXF 393 25.6 µM | TK-10 17.9 µM | MDA-MB-231 15.1 µM | HOP-62 21.5 µM | EKVX 25 µM | K562 8.15 µM | U-251 13.1 µM | MDA-N 15.7 µM | DU-145 26.1 µM | SK-OV-3 26.8 µM

O=P1(c2ccccc2)C(c2ccccc2)=CC=C1c1ccccc1
inactive: NCI-H522 20 µM | 786-0 26 µM | SNB-75 20.7 µM | HOP-92 12.1 µM | M14 18.4 µM | HL-60 2.28 µM | UO-31 13.7 µM | ACHN 28 µM | MOLT-4 6.65 µM | SW-620 26.1 µM | RXF 393 29.9 µM | TK-10 13.2 µM | MDA-MB-231 36.7 µM | HOP-62 44.4 µM | EKVX 24.2 µM | K562 3.95 µM | U-251 13.3 µM | MDA-N 10.8 µM | DU-145 41.8 µM | SK-OV-3 59.4 µM

CC(C)NC(=O)OCc1c(COC(=O)NC(C)C)c(-c2cc[n+](COC(=O)C(C)C)cc2)n2c1CCC2
inactive: NCI-H522 > 72.1 µM | 786-0 28 µM | SNB-75 > 53.5 µM | HOP-92 69.7 µM | M14 99.5 µM | HL-60 27.8 µM | UO-31 > 100 µM | ACHN 12.2 µM | MOLT-4 > 46.9 µM | SW-620 > 100 µM | RXF 393 21 µM | TK-10 41.5 µM | MDA-MB-231 > 100 µM | HOP-62 > 68.4 µM | EKVX > 100 µM | K562 > 100 µM | U-251 > 100 µM | MDA-N > 100 µM | DU-145 > 100 µM | SK-OV-3 98.4 µM

Nc1c(C(=O)c2ccc(Cl)cc2)[nH]c(NCc2ccccc2)c1C(=S)Nc1ccccc1
inactive: NCI-H522 1.82 µM | 786-0 1.72 µM | SNB-75 1.71 µM | HOP-92 2.84 µM | M14 1.96 µM | HL-60 3.93 µM | UO-31 1.58 µM | ACHN 2.28 µM | MOLT-4 2.58 µM | SW-620 1.88 µM | RXF 393 1.79 µM | TK-10 2.09 µM | MDA-MB-231 1.9 µM | HOP-62 3.67 µM | EKVX 7.21 µM | K562 2.08 µM | U-251 1.72 µM | MDA-N 1.73 µM | DU-145 3.44 µM | SK-OV-3 20.1 µM

COc1ccc(NC(C)=O)cc1N1C(=O)/C(=C\c2cccc(Oc3ccccc3)c2)S(=O)(=O)C1c1ccccc1 (stereo not given)
inactive: NCI-H522 41.1 µM | 786-0 32.2 µM | SNB-75 19 µM | HOP-92 25 µM | M14 30.1 µM | HL-60 20.4 µM | UO-31 18.9 µM | ACHN 39.4 µM | MOLT-4 16.9 µM | SW-620 28.4 µM | RXF 393 54.8 µM | TK-10 > 100 µM | MDA-MB-231 49 µM | HOP-62 71.6 µM | EKVX 41.6 µM | K562 22.8 µM | U-251 32.7 µM | MDA-N 21 µM | DU-145 39 µM | SK-OV-3 > 100 µM
